IC50 data for two molecules are collected here from article PMC5207132, “New Insights into the Cyclic Di-adenosine Monophosphate (c-di-AMP) Degradation Pathway and the Requirement of the Cyclic Dinucleotide for Acid Stress Resistance in Staphylococcus aureus” (The Journal of Biological Chemistry, 2016).

Broadly, the IC50 is the concentration that gives 50% inhibition. A low value points to higher potency.

Test [1] addresses T1, GdpP (Staphylococcus aureus, UniProt A0A0H2XJV8).
T1 construct: gene SAUSA300_0014
Nature of the test: radiolabelled c-di-AMP hydrolysis, TLC. The format is biochemical.

For test [2], the target named is T2, Pde2 (Staphylococcus aureus, UniProt A0A0H2XFX6).
T2 construct: gene SAUSA300_1650
T2 sequence (A0A0H2XFX6 entry or part of it): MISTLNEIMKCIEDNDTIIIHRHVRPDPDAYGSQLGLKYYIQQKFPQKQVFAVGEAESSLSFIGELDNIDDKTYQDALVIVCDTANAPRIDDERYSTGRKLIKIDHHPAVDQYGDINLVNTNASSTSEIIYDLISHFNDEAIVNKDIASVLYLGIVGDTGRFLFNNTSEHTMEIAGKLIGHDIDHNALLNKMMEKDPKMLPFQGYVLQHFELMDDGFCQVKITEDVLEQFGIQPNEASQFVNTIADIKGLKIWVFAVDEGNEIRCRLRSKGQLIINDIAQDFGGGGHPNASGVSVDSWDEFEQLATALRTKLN
The experiment in a line: radiolabelled pApA hydrolysis, TLC. The format is biochemical.

T1 sequence (A0A0H2XJV8 entry or part of it): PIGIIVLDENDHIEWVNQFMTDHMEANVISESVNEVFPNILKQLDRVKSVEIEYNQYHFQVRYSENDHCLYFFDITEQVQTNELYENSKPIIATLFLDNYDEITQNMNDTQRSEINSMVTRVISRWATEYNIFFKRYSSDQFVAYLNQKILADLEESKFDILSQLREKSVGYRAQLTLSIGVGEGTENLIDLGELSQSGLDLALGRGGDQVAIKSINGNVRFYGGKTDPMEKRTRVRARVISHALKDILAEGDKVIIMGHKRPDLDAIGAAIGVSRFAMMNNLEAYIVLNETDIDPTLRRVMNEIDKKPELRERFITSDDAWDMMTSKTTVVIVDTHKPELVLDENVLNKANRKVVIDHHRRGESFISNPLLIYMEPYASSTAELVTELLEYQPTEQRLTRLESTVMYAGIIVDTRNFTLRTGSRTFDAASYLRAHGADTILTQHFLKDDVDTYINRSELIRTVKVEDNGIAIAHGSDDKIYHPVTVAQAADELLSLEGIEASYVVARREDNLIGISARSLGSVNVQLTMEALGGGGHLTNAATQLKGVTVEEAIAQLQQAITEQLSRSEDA

The molecule `Nc1ncnc2c1ncn2[C@@H]1O[C@H](COP(=O)(O)O[C@H]2[C@@H](O)[C@H](n3cnc4c(N)ncnc43)O[C@@H]2COP(=O)(O)O)[C@@H](O)[C@H]1O` [pApA] gave a concentration for half-maximal inhibition (IC50) in test [1] of 78 ± 2.34 µM.
Consider `Nc1nc2c(ncn2[C@@H]2O[C@H](COP(=O)(O)OP(=O)(O)O)[C@@H](OP(=O)(O)OP(=O)(O)O)[C@H]2O)c(=O)[nH]1` [ppGpp], for which, in test [2], the IC50 was 139 ± 5.6 µM.
